According to patent publication US20070021351A1, “Liver/plasma concentration ratio for dosing hepatitis C virus protease inhibitor” (Schering Corporation, priority 2005, published 2007):

Legend:
[1] = test system: HCV polyprotein processing; assay: Kinetic studies following polyprotein processing intermediates; type: cell-based
Tissue distribution = type: in vivo; conditions: liver as well as extra-hepatic sites
[2] = Example 3: multiple-dose (14 days) pharmacokinetics in HCV positive subjects; type: in vivo, human
Procedure: (§1) Multiple escalating doses of compound of Formula Ia were administered for 14 days to HCV positive subjects who were genotype 1 Interferon-a (with or without ribavirin) non responders. In a randomized, placebo controlled, third party blind study, multiple doses of 100 mg BID, 200 mg BID, 400 mg BID, 400 mg TID, and 600 mg TID of compound of Formula Ia or placebo in a 3:1 ratio with or without food were evaluated.
• Group 1: Compound of Formula Ia 100 mg (2×50 mg) BID or matching placebo×14 days without food. • Group 2: Compound of Formula Ia 200 mg (2×100 mg) BID or matching placebo×14 days without food. • Group 3: Compound of Formula Ia 400 mg (4×100 mg) BID or matching placebo×14 days without food. • Group 4: Compound of Formula Ia 400 mg (4×100 mg) TID or matching placebo×14 days without food. • Group 5: Compound of Formula Ia 400 mg (4×100 mg) BID or matching placebo×14 days with food. • Group 6: Compound of Formula Ia 600 mg (6×100 mg) BID or matching placebo×14 days without food. • Group 7: Compound of Formula Ia 600 mg (6×100 mg) BID or matching placebo×14 days with food. • Group 8: compound of Formula Ia 600 mg (6×100 mg) TID or matching placebo×14 days without food. • Group 9: compound of Formula Ia intermediate dose or matching placebo×14 days with or without food.
Each subject was randomized to one treatment group. On Day 14, only the AM dose was administered.
For Cohorts Without Food: Treatments were administered on the morning (approximately 8 AM) of Days 1 and 14 following a 10 hour fast. Fasting continued until 4 hours postdose. Water was allowed during the fasting period. On the nonpharmacokinetic collection days (Days 2 through 13) breakfast and dinner were consumed either 90 minutes before or 90 minutes after each dose. All treatments were administered with approximately 240 mL of noncarbonated water. All doses on Days 1-14 were administered at approximately the same time each day, for cohorts with BID dosing study treatment were administered approximately 12 hours apart at 8 AM and 8 PM, and for cohorts with TID dosing study treatment were administered approximately 8 hours apart at 8 AM, 4 PM, and 12 Midnight.
For Cohorts With TID Dosing: All volunteers were dosed three times daily at approximately the same time each day; the doses were administered approximately 8 hours apart at 8 AM, 4 PM, and 12 Midnight.
For Cohorts With BID Dosing: All volunteers were dosed twice a day at approximately the same time each day. The doses were administered approximately 12 hours apart at 8 AM and 8 PM.
On Day 14, all subjects received only their assigned AM dose. During the dosing the capsule(s) were swallowed whole, not chewed or crushed. After dosing, the oral cavity was inspected to assure the volunteer had completely swallowed the capsule(s). […] Water was permitted throughout the fasting and nonfasting periods. […]
The plasma concentration data of compound of Formula Ia was used to estimate the following pharmacokinetic parameters: • Cmax—Maximum observed plasma concentration; • Tmax—Time of observed maximum plasma concentration; • AUC(O-t)—Area under the plasma concentration-time curve over the dosing interval • AUC (tf)—Area under the plasma concentration-time curve to the final quantifiable sample • CL/F—Apparent total body clearance. • t½—Terminal phase half life • Vd/F—Apparent volume of distribution • R—Accumulation ratio […]

[3] = test system: HCV-RNA viral load (genotype 1); assay: Example 3: pharmacodynamics, effect on HCV-RNA viral load; type: in vivo; conditions: 400 mg TID
Procedure: as §1, with “evaluated. […]” for “evaluated.”
Serial HCV-RNA data were evaluated for antiviral activity and for the change from baseline in the serum HCV RNA levels.

**Q.** Which “time until effects become evident” value [1] does the source give for `CC(C)(C)NC(=O)N[C@H](C(=O)N1C[C@H]2[C@@H]([C@H]1C(=O)NC(CC1CCC1)C(=O)C(N)=O)C2(C)C)C(C)(C)C` (mixture of isomers) [Formula Ia, (1R,5S)-N-[3-Amino-1-(Cyclobutylmethyl)-2,3-Dioxopropyl]-3-[2(S)-[[[(1,1-Dimethylethyl)Amino]Carbonyl]Amino]-3,3-Dimethyl-1-Oxobutyl]-6,6-Dimethyl-3-Azabicyclo[3.1.0]Hexan-2(S)-Carboxamide] here?
**A.** The value was “one”.

**Q.** And the tissue distribution (Tissue distribution)?
**A.** Its tissue distribution is “distributes widely throughout the tissues of the body”.

**Q.** And the “mean accumulation ratio for BID dosing” value ([2]; BID dosing, 14 days)?
**A.** Its value is 1.

**Q.** And the Cmax ([2]; Day 14, 400 mg BID without food, mean, n=11)?
**A.** The Cmax was 459 ng/mL.

**Q.** And the “AUC(0-12 hr)” value ([2]; Day 14, 400 mg BID, mean, n=11)?
**A.** Its value is 1644 ng·h/mL.

**Q.** And the concentration at 11 day ([2]; human, plasma, multiple oral dosing, read-out: steady-state level (trough, Cmin))?
**A.** Its concentration at 11 day is about 200 ng/mL.

**Q.** And the “time at which steady-state levels were reached” value ([2]; trough data (Cmin))?
**A.** Its value is about 11 days.

**Q.** What about the “dose dependence of antiviral activity” value ([3]; 100 mg BID, 200 mg BID, 400 mg BID, all subjects) of the same compound?
**A.** Its value is “antiviral activity increased in a dose-related manner”.

**Q.** What about the “viral load reduction from baseline, average minimum reduction” value ([3]; 14 days, genotype 1 interferon non responders) of the same compound?
**A.** Its value is 2 logs.
